The values that follow come from publication PMC5432002, “The active site structure and catalytic mechanism of arsenite oxidase” (Scientific Reports, 2017).

The assay addresses T1, NT-26 arsenite oxidase (NT-26 Aio) (Pseudorhizobium banfieldiae, UniProt Q6VAL8).
T1 construct: gene aroA; A subunit with Mo site and [3Fe-4S], B subunit with Rieske [2Fe-2S]; with Arsenite oxidase subunit AioB
In kind it is binding.

In the case of `O[As](O)O` [arsenite], the “Mo....As EXAFS interaction” value is reported as “suggesting the presence of bound substrate or product through a Mo—O—As linkage”.
